Where only a bound is given, the exact number is not on record here.

For the first assay, the target named is T1, Protein deacetylase HDAC6 (Homo sapiens, UniProt Q9UBN7).
T1 sequence (Q9UBN7 whole entry): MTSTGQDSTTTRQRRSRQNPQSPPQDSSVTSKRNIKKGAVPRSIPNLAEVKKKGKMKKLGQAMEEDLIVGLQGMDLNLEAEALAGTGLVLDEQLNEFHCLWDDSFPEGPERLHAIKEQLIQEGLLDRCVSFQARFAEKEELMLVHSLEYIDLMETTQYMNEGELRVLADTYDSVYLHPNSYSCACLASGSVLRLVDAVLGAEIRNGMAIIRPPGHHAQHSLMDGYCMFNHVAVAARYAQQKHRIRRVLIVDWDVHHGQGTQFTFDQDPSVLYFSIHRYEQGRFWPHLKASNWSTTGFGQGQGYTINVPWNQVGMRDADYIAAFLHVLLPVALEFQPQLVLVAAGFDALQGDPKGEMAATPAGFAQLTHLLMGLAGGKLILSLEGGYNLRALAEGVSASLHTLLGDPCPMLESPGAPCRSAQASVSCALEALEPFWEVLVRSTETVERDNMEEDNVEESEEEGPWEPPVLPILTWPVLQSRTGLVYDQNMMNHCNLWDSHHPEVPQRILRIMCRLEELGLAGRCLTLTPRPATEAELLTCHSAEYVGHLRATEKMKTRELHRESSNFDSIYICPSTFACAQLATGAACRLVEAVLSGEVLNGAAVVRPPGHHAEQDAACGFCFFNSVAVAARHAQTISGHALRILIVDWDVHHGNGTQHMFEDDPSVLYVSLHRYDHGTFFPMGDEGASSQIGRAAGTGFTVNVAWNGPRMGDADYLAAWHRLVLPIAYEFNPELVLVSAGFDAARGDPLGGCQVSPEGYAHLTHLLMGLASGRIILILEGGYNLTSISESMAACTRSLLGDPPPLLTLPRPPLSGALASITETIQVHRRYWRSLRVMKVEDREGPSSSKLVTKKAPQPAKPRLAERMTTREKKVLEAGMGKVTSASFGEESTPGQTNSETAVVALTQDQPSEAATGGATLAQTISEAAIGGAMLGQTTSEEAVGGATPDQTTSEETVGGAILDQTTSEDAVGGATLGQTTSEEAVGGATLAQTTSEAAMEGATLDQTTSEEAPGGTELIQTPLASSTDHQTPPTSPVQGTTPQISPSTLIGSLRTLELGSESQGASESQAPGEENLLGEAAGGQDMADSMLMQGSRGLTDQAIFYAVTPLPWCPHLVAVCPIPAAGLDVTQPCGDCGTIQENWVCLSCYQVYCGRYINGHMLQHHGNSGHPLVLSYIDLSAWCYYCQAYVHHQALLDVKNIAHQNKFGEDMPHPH
The experiment in a line: Binding affinity to biotinylated HDAC6 ZnF-UBD (unknown origin) by surface plasmon resonance method.
Details: not given; call rule not given here
The Kd is the constant that tells how readily two partners part at equilibrium. A low value points to tighter binding. In the case of `O=C(O)CCc1nc2cc3nc(CCC(=O)O)sc3cc2s1`, the Kd was found to be 8 µM.

The target in another assay is T1, Protein deacetylase HDAC6. The experiment in a line: Displacement of N-terminal FITC-labeled RLRGG from N-terminal AviTag/C-terminal His6-tagged HDAC6 ZnF-UBD (unknown origin) expressed in Escherichia coli BL21 (DE3) after 10 mins by fluorescence polarization assay.
Details: not given
(In fluorescence polarisation assays a small probe gives low polarisation when free and higher when bound to something large.)
By IC50 is commonly meant the concentration that inhibits the measured activity by half. With `COC(=O)CCc1nc2ccccc2nc1OC`, the IC50 entry is given as “Not Active”. For the compound `O=C(O)CCCc1nc2ccccc2s1`, the IC50 entry is “Not Active”.

For the compound `CN(C(=O)Cn1c(CS(C)(=O)=O)nc2ccccc21)c1ccccc1`, the IC50 result was “Not Active”. For `COc1nccnc1CCC(=O)O`, the IC50 result was “Not Active”. Take `COC(CC(=O)O)c1nc2ccccc2s1` (stereo unspecified): the IC50 entry was “Not Active”. As to `COc1nc2ccccc2nc1CCC(N)=O`, the IC50 result is “Not Active”. Same read-out and setting: to `O=C(O)CCc1nc2ccccc2o1` belongs “Not Active”; to `CS(=O)(=O)Cc1nc2ccccc2n1CC(=O)Nc1cccc(NC(N)=O)c1`, “Not Active”; to `O=C(O)C(O)C(O)c1nc2ccccc2s1` (stereo unspecified), “Not Active”.

As to `CC(Cc1nc2ccccc2s1)C(=O)O` (stereo unspecified), the IC50 result was “Not Active”. `CNC(=O)CCc1nc2ccccc2nc1OC`: the IC50 result was “Not Active”. Turning to `O=C(O)Cc1ccc2ccccc2n1`, the half-inhibitory concentration (IC50) entry is “Not Active”. For the compound `COC(Cc1nc2ccccc2s1)C(=O)O` (stereo unspecified), the IC50 result was “Not Active”. Regarding `O=C(O)CCc1cc2ccccc2o1`, the IC50 result is on record as “Not Active”.

Regarding `O=C(O)CCc1nc2ccccc2[nH]1` [PROCODAZOLE], the IC50 entry was “Not Active”.

Staying with this assay, now noted: read-out: IC50.
Take `COc1nc2ccccc2nc1CCC(=O)O`: the IC50 is 45 µM. Take `O=C(O)Cn1cnc2ccccc2c1=O`: the IC50 stood at 320 µM. For `O=C(O)CCc1nc2cc(Cl)ccc2n(Cc2ccccc2)c1=O`, the IC50 was 150 µM. For the compound `O=C(O)Cn1cnc2c(oc3ccccc32)c1=O`, the half-inhibitory concentration (IC50) worked out at 51 µM. Consider `O=C(O)CCc1nc(O)c2ccccc2n1`, for which the IC50 was determined as 230 µM. As for `O=C(O)Cn1cnc2ccc(Br)cc2c1=O`, the IC50 was determined as 200 µM.

On to `Cn1c(=O)c(CCC(=O)O)nc2ccccc21`, for which the IC50 is 65 µM. With `O=C(O)CCc1nc2ccccc2s1`, the IC50 was determined as 180 µM. Still for that read-out and setting: to `Cn1c(CCC(=O)O)nc2ccccc21` belongs 100 µM. Turning to `O=C(O)CCc1nc2ccccc2c2nc(=O)c(Cc3ccccc3)nn12`, the IC50 was 25 µM.

Take `O=C(O)Cn1nc(O)c2ccccc2c1=O`: the IC50 turned out to be 200 µM. As for `COc1cc2ncn(CCC(=O)O)c(=O)c2cc1OC`, the IC50 turned out to be 95 µM. With `O=C(O)CCn1nnc2ccccc2c1=O`, the IC50 came to 240 µM. Turning to `Cc1cc(C)c2c(n1)sc1c(=O)n(CC(=O)O)cnc12`, the IC50 was 190 µM. Regarding `O=C(O)Cc1nc2ccccc2s1`, the IC50 was 390 µM. Regarding `NC(=O)c1cc(-n2c(CCC(=O)O)nc3ccccc32)cs1`, the IC50 came out at 640 µM. Regarding `N#Cc1c2n(c3c(=O)n(CC(=O)O)cnc13)CCCC2`, the IC50 was determined as 77 µM. `O=C(O)CCc1nc2cc3nc(CCC(=O)O)sc3cc2s1`: the IC50 is 5.1 µM. Consider `O=C(O)CCc1ccc2ccccc2n1`, for which the IC50 is over 720 µM.

`COc1cc2ncn(CC(=O)O)c(=O)c2cc1OC`: the IC50 stood at 44 µM.
